Ends that are not written are not given here.
Experiments:
[1] = tested on: CT26 colon tumor-bearing mice; test: In vivo antitumor efficacy
Protocol: (§2) Antitumor efficacy was assessed by measuring tumor volumes that are calculated as the largest diameter × the smallest diameter^2 × 0.53. To analyze the increase of tumor-infiltrating lymphocytes by antitumor immune response, tumor tissues were collected from mice on day 13 after treatment, and single cells were isolated from tumor tissues using a tumor dissociation kit. Following single cell counting, the cells were incubated with FcBlock for 10 min to avoid non-specific antibody binding. Then, multi-parameter staining was performed at 4 °C for 50 min to identify the following populations within the tumor tissues: (i) CRT-positive cancer cells (CD45^−CRT^+), (ii) mature DCs (CD11c^+CD40^+CD86^+), (iii) cytotoxic T cells (CD45^+CD3^+CD8^+) and (iv) regulatory T lymphocytes (Tregs; CD45^+CD3^+CD4^+CD25^+).

CT26 tumor tissues = test: Antitumor immune response in tumor tissues (flow cytometry); type: in vivo, mice; conditions: day 13 after treatment, 3 mg/kg DOX dose once every three days
Protocol: as §2

[2] = Drug release profile from dialysis membranes; type: physicochemical; conditions: very fast release
CT26 cells = test: Cellular uptake and nuclear localization of DOX fluorescence (confocal); conditions: both naive or Z-FA-FMK-treated CT26 cells; 2 µM, 48 h
Protocol: The cells were then washed with DPBS, fixed with 4% paraformaldehyde for 10 min, and stained with 4ʹ,6-diamidino-2-phenylindole (DAPI) for 5 min. […] The cellular uptake of each drug in different cell lines were quantified using flow cytometer (CytoFLEX, BECKMAN COULTER, USA).

[3] = tested on: cancer, normal and immune cells (CT26, 4T1, H9C2, HDF, M0 and M1 macrophages, DCs, T cells); test: Cytotoxicity study (CCK-8), all cell types; conditions: read-out: IC50 values in all the cell types (span); CCK-8, 48 h, concentrations based on DOX contents
Protocol: Briefly, 5 × 10^3 cells were seeded in 96-well cell culture plates and cultured at 37 C for 24 h. […] Finally, 20 μl Cell Counting Kit-8 (CCK-8) solution was added and then further incubated for 20 min. The cell viability was measured using a UV/Vis microplate reader.

[4] = tested on: CT26 cells co-cultured with bone marrow-derived macrophages (BMDMs); test: Co-culture assay: phagocytosis of treated CT26 cells by BMDMs; conditions: CT26 treated 2 µM (DOX contents) 48 h, pHrodo labeled; co-cultured 2 h with BMDMs; confocal imaging
Protocol: For these analyses, bone marrow cells were collected from 5-week-old male BALB/C mice and cultured with differentiation media containing M-CSF (20 ng/mL) for 7 days, followed by labeling with CellTracker Green. […] Then, both cells were co-cultured at 37 C for 2 h, and the phagocytosis of cancer cells was observed using a CLSM.

[5] = tested on: CT26 colon tumor-bearing mice
Protocol: as §2

IAPs in CT26 cells = test: Intracellular IAPs expression by western blot; type: cell-based, mouse; conditions: 48 h
IAPs = conditions: cited from earlier work
Description: (§1) First, the cathepsin B-cleavable SMAC-P, SMAC-P-FRRG ([…]), was conjugated to a DOX through one-step EDC/NHS reaction, resulting in SMAC-P-FRRG-DOX (Fig. 1a and Additional file 1: Figure S1).

[6] = Particle stability (particle size over time) in saline, mouse plasma or serum; type: physicochemical
Protocol: The inset pictures indicate representative images of Aposomes in mouse serum conditions. g Release profiles of free DOX, DOXIL and Aposomes. […] As a control, SMAC-P-FRRG-DOX in MES buffer in the absence of cathepsin B was analyzed using an HPLC system.

[7] = Size distribution and zeta potential by zeta-sizer (DLS); type: physicochemical; conditions: Zetasizer, 1 mg/ml; saline or D.W (Figure S3)
caspase-3 = conditions: cited from earlier work
Description: as §1

MMP-9 = conditions: cited from earlier work
Description: as §1

cathepsin L = conditions: cited from earlier work
Description: as §1

cathepsin D = conditions: cited from earlier work
Description: as §1

cathepsin E = conditions: cited from earlier work
Description: as §1

COc1cccc2c1C(=O)c1c(O)c3c(c(O)c1C2=O)C[C@@](O)(C(=O)CO)C[C@@H]3O[C@H]1C[C@H](N)[C@H](O)[C@H](C)O1.Cl [free DOX, Doxorubicin hydrochloride]
median survival / survival of mice ([1]; 3 mg/kg DOX dose once every three days): 14 days | tumor volume on day 14 ([1]; i.v. 3 mg/kg DOX dose once every three days, n = 5, mean ± SD): 556.2 ± 149.82 mm^3 | percentage of CRT-positive tumor cells (CD45−CRT+) within the tumor tissues (CT26 tumor tissues): 57.67 ± 0.91% | time of release from dialysis membranes [2]: ≤ 6 h | free DOX fluorescence detected in the nuclei (CT26 cells): more than 90% | IC50 [3]: 3 to 380 nM | phagocytosis of CT26 cells by BMDMs [4]: 2.1 ± 0.21% | mice died within 13 days ([5]; 3 mg/kg DOX dose i.v. once every three days): 4 out of 5 | body weight loss and tissue damage in major organs ([5]; 3 mg/kg DOX dose once every three days, H and E of major organs): significant body weight loss along with extensive tissue damages | intracellular IAPs expression levels (IAPs in CT26 cells): significantly upregulated

AVPIAQ
IAP antagonism compared to AVPIAQK, AVPIA and AVPI (IAPs): potent activity for IAP antagonism compared to other sequences

AVPIAQFR [peptide released from SMAC-P-FRRG-DOX by cathepsin B]
IAPs antagonism activity of cathepsin B cleavage product (IAPs): comparable IAPs antagonism activity to AVPIAQ

AVPIAQFRRG [SMAC-P-FRRG-DOX, prodrug of SMAC mimetic peptide (AVPIAQ), cathepsin B-cleavable peptide (FRRG) and doxorubicin]
particle stability in mouse plasma ([6]; mouse plasma, 1 mg/ml, up to 5 days, particle size): remarkable aggregation after 2 days | particle stability in mouse serum ([6]; mouse serum, as worded in Conclusions): significant aggregation from 48 h | zeta potential [7]: 14.9 ± 0.814 mV | cleavage by caspase-3 (caspase-3): not cleaved | cleavage by MMP-9 (MMP-9): not cleaved | cleavage by cathepsin L (cathepsin L): not cleaved | cleavage by cathepsin D (cathepsin D): not cleaved | cleavage by cathepsin E (cathepsin E): not cleaved
